Measured values: PMC7970304, “The Effects of Apelin and Elabela Ligands on Apelin Receptor Distinct Signaling Profiles” (Frontiers in Pharmacology, 2021)
Entries after “also recorded” stand apart in the source; their conditions may differ.

Columns and labels:
[1] = target: T1, APJ (Apelin receptor) (Homo sapiens, UniProt P35414); test: BRET-based cAMP biosensor (CAMYEL) assay; format: cell-based
T1 sequence (P35414 1-380): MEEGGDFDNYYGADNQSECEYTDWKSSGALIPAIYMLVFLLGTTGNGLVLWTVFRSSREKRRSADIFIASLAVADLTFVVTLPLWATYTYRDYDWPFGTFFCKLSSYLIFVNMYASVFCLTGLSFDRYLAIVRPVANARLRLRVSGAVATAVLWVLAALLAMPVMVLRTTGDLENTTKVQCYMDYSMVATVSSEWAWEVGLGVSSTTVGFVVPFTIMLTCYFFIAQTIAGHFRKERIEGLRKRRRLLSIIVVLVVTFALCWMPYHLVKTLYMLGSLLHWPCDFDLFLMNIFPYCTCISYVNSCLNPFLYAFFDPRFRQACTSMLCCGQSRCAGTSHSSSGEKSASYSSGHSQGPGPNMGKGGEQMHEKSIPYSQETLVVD
Method: The cAMP concentration was measured using a BRET-based cAMP biosensor ([Barak et al., 2008]; [Ji et al., 2017]) in HEK293 cells transiently co-expressing YFP-Epac-RLuc and APJ. The sensor is composed of an N-terminal truncated variant of EPAC tagged with Rluc and YFP at N-terminal and C-terminal, respectively. […] At 24 h after transfection, cells were digested and plated into a 96-well microplate for 24 h following adding the substrate coelenterazine H into the medium at the final concentration of 5 µM and the nonspecific phosphodiesterase inhibitor IBMX (40 μM) for 20 min, and the cells were stimulated for 10 min with forskolin (10 μM).
(A) A schematic diagram of YFP-cAMP-Rluc fusion expression vector. […] Data represent mean ± SEM from four independent experiments (Supplementary Table S1).
The concentration-response data for the ligands in various assays were analyzed to determine the biases of the ligands for G protein dependent signaling or β-arrestin dependent signaling, according to a previously published method ([Kenakin et al., 2012]; [Hager et al., 2016]; [Hothersall et al., 2017]). Briefly, the concentration-response data for each ligand were fitted to the Black–Leff operation model to obtain the values of τ and K A, using the following equation: Response=[A]^nτ^nEm/[A]^nτ^n+([A]KA)^n where [A] is the concentration of the agonist, E m is the maximal response of the system, n is the transducer slope, and K A and τ describe the affinity and efficacy of the agonist, respectively. In the data fitting, the reparametrized form of the equation proposed by [Kenakin et al. (2012)] was used: Response=Em/1+exp{nln[1+exp(β1)/[A]]−nβ2} where β 1 and β 2 are the natural logarithm of K A and τ, respectively, and E m was set to 1. Thus, for each concentration-response curve, a non-linear regression was performed to fit the above equation to give β 1 and β 2 (as well as n). Log (τ/K A) values (“transduction coefficients”) for each ligand vs. each pathway were obtained. […] The ΔΔlog (τ/K A), or Log (Bias), which is the logarithm of the bias factor for a given pathway over a reference pathway (here, intracellular calcium release), was calculated for each ligand as Δlog (τ/K A)–Δlog (τ/K A)Calcium. The 95% confidence interval (CI) was expressed as the mean ± standard error; Log (Bias) values, whose 95% CI crosses 0, were considered statistically insignificant.
The data were analyzed using GraphPad Prism v5.0. All the data are presented as the mean ± SEM. Differences between groups were compared by one-way analysis of variants (ANOVA), followed by post-hoc tests (Tukey’s test), When p < 0.05, the difference was considered significant. All experiments were repeated at least four times. The dose-response curves were generated using non-linear fitting model log (agonist) vs. response (three-parameters), with Hill Slope held to 1, i.e., Y = Bottom + (Top-Bottom)/(1 + 10^(LogEC50-X)).
P<0.05 was considered as statistically significant. Control group (HG, Cells were stimulated with high glucose (Glucose Concentration: 4500 mg/L, HEPES, No Phenol Red). Data represent mean ± SEM from four independent experiments. Statistical analysis (Table S1)

[2] = target: T1, APJ (Apelin receptor); test: Analysis of ligand bias across APJ pathways; format: cell-based; design: APJ membrane preparations were obtained from transiently transfected HEK293 cells; host or cells: HEK293 cells, transiently transfected; membranes prepared; details: reference ligand Apelin-13, reference pathway calcium release
Method: The concentration-response data for the ligands in various assays were analyzed to determine the biases of the ligands for G protein dependent signaling or β-arrestin dependent signaling, according to a previously published method ([Kenakin et al., 2012]; [Hager et al., 2016]; [Hothersall et al., 2017]). Briefly, the concentration-response data for each ligand were fitted to the Black-Leff operation model to obtain the values of τ and K A, using the following equation: Response=[[…] where [A] is the concentration of the agonist, E m is the maximal response of the system, n is the transducer slope, and K A and τ describe the affinity and efficacy of the agonist, respectively. In the data fitting, the reparametrized form of the equation proposed by [Kenakin et al. (2012)] was used: Response=[…]β2} where β 1 and β 2 are the natural logarithm of K A and τ, respectively, and E m was set to 1. […] The ΔΔlog (τ/K A), or Log (Bias), which is the logarithm of the bias factor for a given pathway over a reference pathway (here, intracellular calcium release), was calculated for each ligand as Δlog (τ/K A)-Δlog (τ/K A)Calcium. The 95% confidence interval (CI) was expressed as the mean ± standard error; Log (Bias) values, whose 95% CI crosses 0, were considered statistically insignificant.

Q: For `CSCC[C@H](NC(=O)[C@@H]1CSSC[C@H](NC(=O)[C@H](CC(N)=O)NC(=O)[C@H](Cc2c[nH]cn2)NC(=O)[C@H](CCCCN)NC(=O)[C@H](CCCNC(=N)N)NC(=O)[C@@H](N)CC(C)C)C(=O)N[C@@H](CC(C)C)C(=O)N[C@@H](CCC(N)=O)C(=O)N[C@@H](CCCNC(=N)N)C(=O)N[C@@H](CCCNC(=N)N)C(=O)N1)C(=O)N1CCC[C@H]1C(=O)N[C@@H](CC(C)C)C(=O)N[C@@H](Cc1c[nH]cn1)C(=O)N[C@@H](CO)C(=O)N[C@@H](CCCNC(=N)N)C(=O)N[C@H](C(=O)N1CCC[C@H]1C(=O)N[C@@H](Cc1ccccc1)C(=O)N1CCC[C@H]1C(=O)O)C(C)C` [Elabela-21], which “P vs HG, cAMP production” value ([1]; 0.001 nM) is on record?
A: P>0.05

Q: What about the “P vs HG, cAMP production” value ([1]; 0.01 nM) of the same compound?
A: P>0.05

Q: What about the “P vs HG, cAMP production” value ([1]; 0.1 nM) of the same compound?
A: P>0.05

Q: And the “P vs HG, cAMP production” value ([1]; 1 nM)?
A: ^**P<0.01

Q: And the “P vs HG, cAMP production” value ([1]; 10 nM)?
A: ^***P<0.001

Q: What about the “P vs HG, cAMP production” value ([1]; 100 nM) of the same compound?
A: ^***P<0.001

Q: And the “P vs HG, cAMP production” value ([1]; 1000 nM)?
A: ^***P<0.001

Q: What about the Bias factor ([1]; cAMP over Ca2+, reference Apelin-13) of the same compound?
A: 38.0

Q: And the “Log (Bias)” value ([1]; cAMP over Ca2+, reference Apelin-13, footnote a = statistically insignificant)?
A: 1.6 ± 0.3

Q: And the “bias over calcium release” value ([1]; cAMP pathway)?
A: 38 fold

Q: And the “log (τ/KA)” value ([1]; cAMP, Black–Leff operational model)?
A: −0.1 ± 0.1

Q: And the “Δlog (τ/KA)” value ([1]; cAMP, relative to Apelin-13)?
A: 0.0 ± 0.2

Q: And the “signaling bias profile (in words)” value [2]?
A: much stronger activity on the cAMP pathway; also recorded: weaker activity; also recorded: very weak effects on β-arrestin dependent pathways
